By EC50 is commonly meant the concentration giving half of the maximal effect. For orientation: IC50 means the concentration that gives 50% inhibition.

Each structure is given as a SMILES string. Like-named read-outs stand apart in the source and are kept apart here.

Test [1] concerns the target Gal-4-PPAR (human PPAR LBD fused to GAL4 DNA-binding domain) (Homo sapiens (Human), UniProt P37231). In words: GAL4-PPARG LBD / UAS-luciferase transactivation assay in HEK 293T cells. It is filed as cell-based.
Test [2] addresses GST-PPARG-LBD (Homo sapiens (Human), UniProt P37231). In words: Lanthascreen PPARG competitive binding assay (Invitrogen, TR-FRET). As to conditions: NA = not active, inc = incomplete curve, read-out: IC50 (nM) Lantha. The essentials: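 TR-FRET competitive binding of GST-PPARG-LBD with 5 nM Tb-GST-antibody and 5 nM Fluormone Pan-PPAR Green tracer, in TR-FRET buffer C. Compound serially diluted from 10 μM, 2 h dark incubation, in triplicate. Readout is 520/490 nm emission ratio (340 nm excitation), expressed as fold change over 2% DMSO control.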
(In general: Time-resolved FRET reads energy transfer from a long-lived donor to a nearby acceptor.)

Setting [3] is: GAL4 transactivation, HEK 293T cells; NA = not active; read-out: EC50 (nM) GAL4.
Where [4] appears, read: HEK-293T, 18 h; read-out: % transactivation at 10 μM (GAL4).
[5] abbreviates: Lanthascreen competitive binding.
Setting [6] is: GAL4 transactivation; read-out: EC50 (nM) GAL4.
The mark [7] stands for this setting: Lanthascreen PPARG competitive binding.

GST-PPARG-LBD, sequence (P37231 238-503): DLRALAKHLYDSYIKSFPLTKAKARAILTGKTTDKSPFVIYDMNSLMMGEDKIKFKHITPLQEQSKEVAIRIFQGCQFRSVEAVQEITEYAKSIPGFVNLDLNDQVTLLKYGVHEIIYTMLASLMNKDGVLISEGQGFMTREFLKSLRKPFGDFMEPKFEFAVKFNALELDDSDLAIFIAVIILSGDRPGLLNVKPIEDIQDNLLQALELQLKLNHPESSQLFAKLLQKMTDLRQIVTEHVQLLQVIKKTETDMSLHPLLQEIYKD
Gal-4-PPAR (human PPAR LBD fused to GAL4 DNA-binding domain), sequence (P37231 238-503): as above

Take `Cc1c(C)n(Cc2ccc(-c3ccccc3C(=O)O)cc2)c2ccc(C(=O)N[C@@H](C)[C@H]3CCCN3C(=O)OCc3ccccc3)cc12` [Example 238, 4′-((5-(((S)-1-((R)-1-((benzyloxy)carbonyl)pyrrolidin-2-yl)ethyl)carbamoyl)-2,3-dimethyl-1H-indol-1-yl)methyl)-[1,1′-biphenyl]-2-carboxylic acid]: in test [1] (setting [3]), the EC50 was 193 nM. For the same molecule, the activation at 10 µM in test [1] (setting [4]) was 55%. In test [2] (setting [5]), the IC50 came out at 20 nM.
For `Cc1c(C)n(Cc2ccc(-c3ccccc3C(=O)O)cc2)c2ccc(C(=O)N[C@H](C)c3ccnc(Br)c3)cc12` [Example 269, (R)-4′-((5-(1-(2-bromopyridin-4-yl)ethylcarbamoyl)-2,3-dimethyl-1H-indol-1-yl)methyl)biphenyl-2-carboxylic acid], the EC50 in test [1] (setting [3]) was 907 nM. In addition, in test [1] (setting [4]), the activation at 10 µM stood at 40%. Further, the IC50 in test [2] (setting [5]) worked out at 8 nM.
For `COc1cc(C(F)(F)F)ccc1[C@@H](C)NC(=O)c1ccc2c(c1)c(C)c(C)n2Cc1ccc(-c2ccccc2C(=O)O)cc1` [Example 224, (R)-4′-((5-((1-(2-methoxy-4-(trifluoromethyl)phenyl)ethyl)carbamoyl)-2,3-dimethyl-1H-indol-1-yl)methyl)-[1,1′-biphenyl]-2-carboxylic acid], the EC50 in test [1] (setting [3]) amounted to 86 nM. Besides, the activation at 10 µM in test [1] (setting [4]) is 20%. In addition, in test [2] (setting [5]), the IC50 came to 2 nM.
For the molecule `COc1ccc([C@H](C)NC(=O)c2ccc3c(c2)c(C)c(C)n3Cc2ccc(-c3ccccc3C(=O)O)cc2)cc1Cl` [Example 197, (S)-4′-((5-((1-(3-chloro-4-methoxyphenyl)ethyl)carbamoyl)-2,3-dimethyl-1H-indol-1-yl)methyl)-[1,1′-biphenyl]-2-carboxylic acid], in test [1] (setting [3]), the EC50 stood at 1630 nM. In addition, in test [1] (setting [4]), the activation at 10 µM was found to be 20%. The IC50 in test [2] (setting [5]) was 17 nM.
Turning to `Cc1c(C)n(Cc2ccc(-c3ccccc3C(=O)O)cc2)c2ccc(C(=O)N[C@@H](C)c3ccc(C(F)(F)F)cc3F)cc12` [Example 298, (S)-4′-((5-((1-(2-Fluoro-4-(trifluoromethyl)phenyl)ethyl)carbamoyl)-2,3-dimethyl-1H-indol-1-yl)methyl)-[1,1′-biphenyl]-2-carboxylic acid], in test [1] (setting [6]), the EC50 was 448 nM. The activation at 10 µM in test [1] (setting [4]) came out at 10%. In addition, the IC50 in test [2] (setting [7]) was found to be 11 nM.
For the molecule `Cc1c(C)n(Cc2ccc(-c3ccccc3C(=O)O)cc2)c2ccc(C(=O)N[C@@H](C)C3CCN(C(=O)OCc4ccccc4)CC3)cc12` [Example 202, (S)-4′-((5-((1-(1-((benzyloxy)carbonyl)piperidin-4-yl)ethyl)carbamoyl)-2,3-dimethyl-1H-indol-1-yl)methyl)-[1,1′-biphenyl]-2-carboxylic acid], in test [1] (setting [3]), the concentration giving a half-maximal response (EC50) was 1750 nM. Moreover, the activation at 10 µM in test [1] (setting [4]) stood at 40%. The IC50 in test [2] (setting [5]) came out at 35 nM.
`Cc1c(C)n(Cc2ccc(-c3ccccc3C(N)=O)cc2)c2ccc(C(=O)N[C@@H](C)c3cccc(C(C)C)c3)cc12` [Example 315, (S)-1-((2′-Carbamoyl-[1,1′-biphenyl]-4-yl)methyl)-N-(1-(3-isopropylphenyl)ethyl)-2,3-dimethyl-1H-indole-5-carboxamide] showed an EC50 in test [1] of 137 nM. The activation at 10 µM in test [1] (setting [4]) is 2%. For the same molecule, the IC50 in test [2] (setting [7]) is 62 nM.
With `CC[C@@H](NC(=O)c1ccc2c(ccn2Cc2ccccc2-c2cccc(C(=O)O)c2)c1)c1ccccc1` [Example 192, (R)-2′-((5-((1-phenylpropyl)carbamoyl)-1H-indol-1-yl)methyl)-[1,1′-biphenyl]-3-carboxylic acid], the EC50 in test [1] (setting [3]) came to 27 nM. For the same molecule, the activation at 10 µM in test [1] (setting [4]) is 40%. For the same molecule, the IC50 in test [2] (setting [5]) worked out at 4 nM.
Consider `CCOc1cccc([C@H](C)NC(=O)c2ccc3c(c2)c(C)c(C)n3Cc2ccc(-c3ccccc3C(=O)O)cc2)c1` [Example 151, (S)-4′-((5-((1-(3-ethoxyphenyl)ethyl)carbamoyl)-2,3-dimethyl-1H-indol-1-yl)methyl)-[1,1′-biphenyl]-2-carboxylic acid], for which the EC50 in test [1] (setting [3]) turned out to be 618 nM. In test [1] (HEK-293T, 18 h, read-out: % transactivation at 10 μM (GAL4)), the activation at 10 µM stood at 25%. Besides, the concentration for half-maximal inhibition (IC50) in test [2] (setting [5]) came out at 21 nM.
Take `Cc1c(C)n(Cc2ccc(-c3ccccc3C(=O)O)cc2)c2ccc(C(=O)N[C@@H](C)C3CCCCC3)cc12` [Example 212, (S)-4′-((5-((1-cyclohexylethyl)carbamoyl)-2,3-dimethyl-1H-indol-1-yl)methyl)-[1,1′-biphenyl]-2-carboxylic acid]: the EC50 in test [1] (setting [3]) is 209 nM. Moreover, the activation at 10 µM in test [1] (setting [4]) is 20%. In addition, the IC50 in test [2] (setting [5]) was 4 nM.
As to `Cc1c(C)n(Cc2ccc(-c3ccccc3C(=O)N(C)C)cc2)c2ccc(C(=O)N[C@@H](C)c3cccc(C(C)C)c3)cc12` [Example 312, (S)-1-((2′-(Dimethylcarbamoyl)-[1,1′-biphenyl]-4-yl)methyl)-N-(1-(3-isopropylphenyl)ethyl)-2,3-dimethyl-1H-indole-5-carboxamide], in test [1] (setting [6]), the concentration giving a half-maximal response (EC50) stood at 914 nM. For the same molecule, the activation at 10 µM in test [1] (setting [4]) is 10%. In addition, in test [2] (setting [7]), the IC50 came to 148 nM.
As to `Cc1c(C)n(Cc2ccc(-c3ccccc3C(=O)O)cc2)c2ccc(C(=O)N[C@@H](C)[C@@H]3CCN(C(=O)OCc4ccccc4)C3)cc12` [Example 240, 4′-((5-(((S)-1-((R)-1-((benzyloxy)carbonyl)pyrrolidin-3-yl)ethyl)carbamoyl)-2,3-dimethyl-1H-indol-1-yl)methyl)-[1,1′-biphenyl]-2-carboxylic acid], the EC50 in test [1] (setting [3]) is 1300 nM. Also, the activation at 10 µM in test [1] (setting [4]) stood at 25%. In addition, the IC50 in test [2] (setting [5]) worked out at 58 nM.
In the case of `Cc1c(C)n(Cc2ccc(-c3ccccc3C(=O)O)cc2)c2ccc(C(=O)N[C@@H](C)c3cc(C4CC4)ccn3)cc12` [Example 266, (S)-4′-((5-((1-(4-cyclopropylpyridin-2-yl)ethyl)carbamoyl)-2,3-dimethyl-1H-indol-1-yl)methyl)-[1,1′-biphenyl]-2-carboxylic acid], in test [1] (setting [3]), the concentration giving a half-maximal response (EC50) came to 588 nM. Besides, the activation at 10 µM in test [1] (setting [4]) turned out to be 25%. In addition, in test [2] (setting [5]), the IC50 turned out to be 8 nM.
On to `Cc1c(C)n(Cc2ccc(-c3ccccc3C(=O)O)cc2)c2ccc(C(=O)N[C@@H](C)c3cc(C(F)(F)F)ccc3C(F)(F)F)cc12` [Example 172, (S)-4′-((5-((1-(2,5-bis(trifluoromethyl)phenyl)ethyl)carbamoyl)-2,3-dimethyl-1H-indol-1-yl)methyl)-[1,1′-biphenyl]-2-carboxylic acid], for which the EC50 in test [1] (setting [3]) came out at 106 nM. Moreover, the activation at 10 µM in test [1] (setting [4]) is 8%. Also, the IC50 in test [2] (setting [5]) was determined as 9 nM.
With `CC[C@@H](NC(=O)c1ccc2c(ccn2Cc2ccccc2-c2ccc(C(=O)O)cc2)c1)c1ccccc1` [Example 190, (R)-2′-((5-((1-phenylpropyl)carbamoyl)-1H-indol-1-yl)methyl)-[1,1′-biphenyl]-4-carboxylic acid], in test [1] (setting [3]), the EC50 worked out at 51 nM. In addition, in test [1] (setting [4]), the activation at 10 µM worked out at 45%. Besides, the IC50 in test [2] (setting [5]) came to 5 nM.
Take `CNC(=O)c1ccccc1-c1ccc(Cn2c(C)c(C)c3cc(C(=O)N[C@@H](C)c4cccc(C(C)C)c4)ccc32)cc1` [Example 311, (S)—N-(1-(3-Isopropylphenyl)ethyl)-2,3-dimethyl-1-((2′-(methylcarbamoyl)-[1,1′-biphenyl]-4-yl)methyl)-1H-indole-5-carboxamide]: the EC50 in test [1] (setting [6]) was determined as 441 nM. In addition, the activation at 10 µM in test [1] (setting [4]) is 10%. Moreover, the IC50 in test [2] (setting [7]) came out at 76 nM.
For `Cc1c(C)n(Cc2ccc(-c3ccccc3C(=O)O)cc2)c2ccc(C(=O)N[C@@H](C)c3c(F)cncc3F)cc12` [Example 216, (S)-4′-((5-((1-(3,5-difluoropyridin-4-yl)ethyl)carbamoyl)-2,3-dimethyl-1H-indol-1-yl)methyl)-[1,1′-biphenyl]-2-carboxylic acid], in test [1] (setting [3]), the EC50 is 884 nM. In test [1] (setting [4]), the activation at 10 µM came to 30%. Besides, in test [2] (setting [5]), the IC50 amounted to 33 nM.
With `Cc1c(C)n(Cc2ccc(-c3ccccc3C(=O)O)cc2)c2ccc(C(=O)N[C@H](C)C3COc4ccccc4O3)cc12` (stereo partly drawn) [Example 213, 4′-((5-(((1R)-1-(2,3-dihydrobenzo[b][1,4]dioxin-2-yl)ethyl)carbamoyl)-2,3-dimethyl-1H-indol-1-yl)methyl)-[1,1′-biphenyl]-2-carboxylic acid], the EC50 in test [1] (setting [3]) stood at 672 nM. The activation at 10 µM in test [1] (setting [4]) was determined as 40%. For the same molecule, the IC50 in test [2] (setting [5]) is 3 nM.
In the case of `Cc1c(C)n(Cc2ccc(-c3ccccc3C(=O)O)cc2)c2ccc(C(=O)N[C@@H](C)c3cc(F)c(F)cc3F)cc12` [Example 301, (S)-4′-((2,3-Dimethyl-5-((1-(2,4,5-trifluorophenyl)ethyl)carbamoyl)-1H-indol-1-yl)methyl)-[1,1′-biphenyl]-2-carboxylic acid], the EC50 in test [1] (setting [6]) is 198 nM. In addition, in test [1] (setting [4]), the activation at 10 µM turned out to be 40%. Further, the IC50 in test [2] (setting [7]) came out at 8 nM.
Consider `Cc1c(C)n(Cc2ccc(-c3ccccc3C(=O)O)cc2)c2ccc(C(=O)N[C@@H](C)c3ccnc(C4CC4)c3)cc12` [Example 268, (S)-4′-((5-(1-(2-cyclopropylpyridin-4-yl)ethylcarbamoyl)-2,3-dimethyl-1H-indol-1-yl)methyl)biphenyl-2-carboxylic acid], for which the EC50 in test [1] (setting [3]) was found to be 8970 nM. Besides, the activation at 10 µM in test [1] (setting [4]) is 20%. For the same molecule, the IC50 in test [2] (setting [5]) turned out to be 352 nM.
For `Cc1c(C)n(Cc2ccc(-c3ccccc3C(=O)O)cc2)c2ccc(C(=O)N[C@@H](C)c3cccc4c3OCO4)cc12` [Example 143, (S)-4′-((5-((1-(benzo[d][1,3]dioxol-4-yl)ethyl)carbamoyl)-2,3-dimethyl-1H-indol-1-yl)methyl)-[1,1′-biphenyl]-2-carboxylic acid], the EC50 in test [1] (setting [3]) came to 189 nM. In test [1] (setting [4]), the activation at 10 µM is 45%. Also, in test [2] (setting [5]), the IC50 was 10 nM.

The record behind these values is patent US8957093B2, “N-biphenylmethylindole modulators of PPARG” (The Scripps Research Institute, priority 2011, dated 2015).
